Values of other authors in patent US20030139466A1, “Methods for pretreating a subject with extracorporeal photopheresis” (priority 2001, published 2003).

What was measured:
[1] = test system: heart transplantation patients
[2] = test system: monocytes; details: plasma containing 8-methoxypsoralen and exposure to ultraviolet-A light (photopheresis)

SMILES | One-year actuarial survival [1] [%] | patients who experience no rejection ([1]; initial postoperative period) [%] | cytokine release [2]
Cn1cnc([N+](=O)[O-])c1Sc1ncnc2nc[nH]c12 [azathioprine] | 60 | < 10 | –
COc1c2occc2cc2ccc(=O)oc12 [8-methoxypsoralen, 9-methoxy-7H-furo[3,2-g][1]-benzopyran-7-one] | – | – | releases tumor necrosis factor-alpha, IL-1, IL-6, and possibly IL-8
